{
  "source": "patent US10195226B2",
  "about": "“Medicinal carbohydrates for treatment of respiratory conditions” (Australian Biomedical Company Pty Ltd., priority 2009, dated 2019)",
  "key": {"[1]": {"test_system": "rabbits", "details": "pre-treatment with repeated administrations (inhalations), reference [7]; cited from earlier work"}, "[2]": {"test_system": "mucocilliary transport", "details": "reference [6]; result in words; cited from earlier work"}, "[3]": {"test_system": "Balb-C mice", "experiment": "Tolerance study on Balb-C mice", "format": "in vivo", "source_text": "(§1) Compounds of Formula (1) and/or (2) have been tested for safety by the applicants. For example, Compounds (1) and (2) were used in a tolerance and subchronic toxicity study on Balb-C mice (AEC Approval Code: BAM/B/2005/16)."}, "[4]": {"test_system": "male Hartley guinea pigs", "experiment": "Guinea pig cough model (neuraminidase aerosol, citric acid challenge)", "format": "in vivo", "details": "for Restoration of respiratory tract damages caused by neuraminidase: guinea pig cough model, oral dose of 500 mg/kg/day×3 days, result in words, 500 mg/kg/day", "method": "A guinea pig cough model was also established by the applicants. Compounds (1) and (2) were tested in this model. […] These in vivo results are in line with the in vitro data. Thus, both the efficacy and safety data support compounds of Formula (1) and/or (2) and particularly compounds (1) and (2) may be useful for medicinal applications.\nMale guinea pigs were housed in pens and have access to water and food ad libitum. This study was approved by Bio21 Institute Animal Ethics Committee.\nTwenty four Conscious male Hartley guinea pigs (500˜550 g) were divided into A, B, C three groups (8 animals for each group), and pretreated with either 5 units/ml solution of neuraminidase (Sigma N2133, lyophilized powder, Type X, 150˜400 units/mg protein) in water (group B and C) or saline alone (Group A) via an aerosol for 5 minutes on day one. Then, on day one, two and three, the guinea pigs were either orally administered with 500 mg/kg of compound (1) (Group C), or water alone (Group A and B). On day four, all the animals were challenged with 0.5M citric acid solution (nebulised, 10 minutes exposure). The cough frequency, times to the 1st, 2nd and third cough, and times to the 1st nose rubs were then recorded over a period of 15 minutes."}, "[5]": {"test_system": "Small Airway Epithelial Cells (SAEC)", "details": "SAEC pretreated with neuraminidase, 24 h, control (treated with neuraminidase) = 100%, mean ± SEM, n = 3"}, "[6]": {"test_system": "Normal Human Bronchial/Tracheal Epithelial Cells (NHBE)", "details": "NHBE pretreated with neuraminidase, 24 h, control (treated with neuraminidase) = 100%, mean ± SEM, n = 3"}, "[7]": {"details": "mammals, reference [8]; cited from earlier work"}, "[8]": {"test_system": "Balb-C mice", "experiment": "Subchronic toxicity study on Balb-C mice", "format": "in vivo", "source_text": "as §1"}, "[9]": {"details": "guinea pigs, neuraminidase aerosol day one, 500 mg/kg oral on days one to three, 0.5M citric acid challenge day four"}},
  "note": "Read-outs that look alike come from different tables or passages of the source.",
  "data": [
    {"smiles": "CC(=O)N[C@H]1[C@H]([C@H](O)[C@H](O)CO)OC(O)(C(=O)O)C[C@@H]1O", "note": "(stereo partly shown) [N-acetylneuraminic acid]", "values": [
      {"measurement": "Prevention of inflammatory changes caused by long term exposure of SO2", "setting": "[1]", "result": "remarkably prevented the inflammatory changes"},
      {"measurement": "Protection against the impairment of the mucocilliary transport", "setting": "[2]", "result": "dose-dependently protected"}
    ]},
    {"smiles": "CC(=O)N[C@H]1[C@H]([C@H](O)[C@H](O)CO)OC(O)(C(=O)[O-])C[C@@H]1O.[Na+]", "note": "(stereo partly shown) [Compound (2), N-acetylneuraminic acid sodium salt]", "values": [
      {"measurement": "Tolerance", "setting": "[3]; 2 g/Kg intraperitoneal dose", "result": "well tolerated"},
      {"measurement": "Tolerance", "setting": "[3]; 5 g/Kg oral dose", "result": "well tolerated"},
      {"measurement": "Restoration of respiratory tract damages caused by neuraminidase", "setting": "[4]; sodium salt", "result": "could restore the respiratory tract damages caused by neuraminidase"}
    ]},
    {"smiles": "CC(=O)NC1C(O)OC(CO)C(O)C1O", "note": "(stereo not shown) [Compound (9)]", "values": [
      {"measurement": "Cell viability", "setting": "[5]; compound 0.19 μg/ml", "result": "121% ± 2.42"},
      {"measurement": "Cell viability", "setting": "[5]; compound 0.77 μg/ml", "result": "120% ± 3.14"},
      {"measurement": "Cell viability", "setting": "[5]; compound 3.1 μg/ml", "result": "115% ± 3.17"},
      {"measurement": "Cell viability", "setting": "[5]; compound 12.5 μg/ml", "result": "119% ± 3.04"},
      {"measurement": "Cell viability", "setting": "[5]; compound 50 μg/ml", "result": "122% ± 3.21"},
      {"measurement": "Cell viability", "setting": "[5]; high concentration 78.1 μg/ml", "result": "100% ± 2.92"},
      {"measurement": "Cell viability", "setting": "[5]; high concentration 312.5 μg/ml", "result": "90% ± 3.28"},
      {"measurement": "Cell viability", "setting": "[5]; high concentration 1.25 mg/ml", "result": "96% ± 3.16"},
      {"measurement": "Cell viability", "setting": "[5]; high concentration 5 mg/ml", "result": "83% ± 2.85"},
      {"measurement": "Cell viability", "setting": "[6]; compound 0.19 μg/ml", "result": "107% ± 3.41"},
      {"measurement": "Cell viability", "setting": "[6]; compound 0.77 μg/ml", "result": "107% ± 1.26"},
      {"measurement": "Cell viability", "setting": "[6]; compound 3.1 μg/ml", "result": "108% ± 3.24"},
      {"measurement": "Cell viability", "setting": "[6]; compound 12.5 μg/ml", "result": "106% ± 3.49"},
      {"measurement": "Cell viability", "setting": "[6]; compound 50 μg/ml", "result": "106% ± 2.52"},
      {"measurement": "Cell viability", "setting": "[6]; high concentration 78.1 μg/ml", "result": "125% ± 3.23"},
      {"measurement": "Cell viability", "setting": "[6]; high concentration 312.5 μg/ml", "result": "95% ± 2.85"},
      {"measurement": "Cell viability", "setting": "[6]; high concentration 1.25 mg/ml", "result": "96% ± 2.42"},
      {"measurement": "Cell viability", "setting": "[6]; high concentration 5 mg/ml", "result": "76% ± 2.71"}
    ]},
    {"smiles": "CC(=O)NC1C(OC(C)=O)OC(COC(C)=O)C(OC(C)=O)C1OC(C)=O", "note": "(stereo not shown) [Compound (7)]", "values": [
      {"measurement": "Cell viability", "setting": "[5]; compound 0.003 μg/ml", "result": "102% ± 0.62"},
      {"measurement": "Cell viability", "setting": "[5]; compound 0.012 μg/ml", "result": "105% ± 1.83"},
      {"measurement": "Cell viability", "setting": "[5]; compound 0.05 μg/ml", "result": "128% ± 1.98"},
      {"measurement": "Cell viability", "setting": "[5]; compound 0.19 μg/ml", "result": "105% ± 2.01"},
      {"measurement": "Cell viability", "setting": "[5]; compound 0.77 μg/ml", "result": "112% ± 1.29"},
      {"measurement": "Cell viability", "setting": "[5]; compound 3.1 μg/ml", "result": "103% ± 1.14"},
      {"measurement": "Cell viability", "setting": "[5]; compound 12.5 μg/ml", "result": "134% ± 0.81"},
      {"measurement": "Cell viability", "setting": "[5]; compound 50 μg/ml", "result": "73% ± 2.18"},
      {"measurement": "Cell viability", "setting": "[6]; compound 0.003 μg/ml", "result": "85% ± 2.71"},
      {"measurement": "Cell viability", "setting": "[6]; compound 0.012 μg/ml", "result": "103% ± 4.70"},
      {"measurement": "Cell viability", "setting": "[6]; compound 0.05 μg/ml", "result": "104% ± 5.85"},
      {"measurement": "Cell viability", "setting": "[6]; compound 0.19 μg/ml", "result": "100% ± 0.66"},
      {"measurement": "Cell viability", "setting": "[6]; compound 0.77 μg/ml", "result": "99% ± 1.93"},
      {"measurement": "Cell viability", "setting": "[6]; compound 3.1 μg/ml", "result": "98% ± 5.65"},
      {"measurement": "Cell viability", "setting": "[6]; compound 12.5 μg/ml", "result": "117% ± 4.12"},
      {"measurement": "Cell viability", "setting": "[6]; compound 50 μg/ml", "result": "54% ± 0.98"}
    ]},
    {"smiles": "OC[C@H]1O[C@@H](O[C@H]2[C@H](O)[C@@H](O)C(O)O[C@@H]2CO)[C@H](O)[C@@H](O)[C@H]1O", "note": "(stereo partly shown) [lactose, reference compound]", "values": [
      {"measurement": "Protection against the impairment of the mucocilliary transport", "setting": "[2]", "result": "not"}
    ]},
    {"smiles": "CC(=O)NC1C(O)OC(COC(C)=O)C(OC(C)=O)C1OC(C)=O", "note": "(stereo not shown) [Compound (8)]", "values": [
      {"measurement": "Cell viability", "setting": "[5]; compound 0.003 μg/ml", "result": "125% ± 8.51"},
      {"measurement": "Cell viability", "setting": "[5]; compound 0.05 μg/ml", "result": "109% ± 1.16"},
      {"measurement": "Cell viability", "setting": "[5]; compound 0.19 μg/ml", "result": "115% ± 3.52"},
      {"measurement": "Cell viability", "setting": "[5]; compound 0.77 μg/ml", "result": "103% ± 3.21"},
      {"measurement": "Cell viability", "setting": "[5]; compound 3.1 μg/ml", "result": "109% ± 2.79"},
      {"measurement": "Cell viability", "setting": "[5]; compound 12.5 μg/ml", "result": "104% ± 1.95"},
      {"measurement": "Cell viability", "setting": "[5]; compound 50 μg/ml", "result": "91% ± 3.36"},
      {"measurement": "Cell viability", "setting": "[6]; compound 0.003 μg/ml", "result": "129% ± 1.70"},
      {"measurement": "Cell viability", "setting": "[6]; compound 0.012 μg/ml", "result": "118% ± 3.19"},
      {"measurement": "Cell viability", "setting": "[6]; compound 0.05 μg/ml", "result": "93% ± 1.38"},
      {"measurement": "Cell viability", "setting": "[6]; compound 0.19 μg/ml", "result": "96% ± 1.21"},
      {"measurement": "Cell viability", "setting": "[6]; compound 0.77 μg/ml", "result": "133% ± 2.09"},
      {"measurement": "Cell viability", "setting": "[6]; compound 3.1 μg/ml", "result": "111% ± 2.44"},
      {"measurement": "Cell viability", "setting": "[6]; compound 12.5 μg/ml", "result": "81% ± 0.60"},
      {"measurement": "Cell viability", "setting": "[6]; compound 50 μg/ml", "result": "42% ± 1.55"}
    ]},
    {"smiles": "CC(=O)N[C@@H]1C(O)O[C@H](CO)[C@@H](O)[C@@H]1O", "note": "(stereo partly drawn) [Compound (1), N-acetyl-D-mannosamine]", "values": [
      {"measurement": "Metabolism after oral administration", "setting": "[7]", "result": "rapidly metabolized into glucose"},
      {"measurement": "Tolerance", "setting": "[3]; 2 g/Kg intraperitoneal dose", "result": "well tolerated"},
      {"measurement": "Tolerance", "setting": "[3]; 5 g/Kg oral dose", "result": "well tolerated"},
      {"measurement": "Restoration of respiratory tract damages caused by neuraminidase", "setting": "[4]", "result": "could restore the respiratory tract damages caused by neuraminidase"},
      {"measurement": "Restoration of respiratory tract damages caused by neuraminidase", "setting": "[4]; listed as compound (1)", "result": "helped to restore the damages caused by neuraminidase"},
      {"measurement": "Cough frequency (in 15 minutes)", "setting": "[4]; [9]", "result": "16 ± 2.2"},
      {"measurement": "Time (second) to the 1st nose rubs", "setting": "[4]; [9]", "result": "49 ± 6.5", "unit": "s"},
      {"measurement": "Time (seconds) to the 1st cough", "setting": "[4]; [9]", "result": "85 ± 15", "unit": "s"},
      {"measurement": "Time (seconds) to the 2nd cough", "setting": "[4]; [9]", "result": "137 ± 31", "unit": "s"},
      {"measurement": "Time (seconds) to the 3rd cough", "setting": "[4]; [9]", "result": "220 ± 10", "unit": "s"},
      {"measurement": "Subchronic toxicity", "setting": "[8]; 0.5 g/Kg/day×30 days intraperitoneal dose", "result": "non-toxic"},
      {"measurement": "Subchronic toxicity", "setting": "[8]; 1 g/Kg/day×30 days oral dose", "result": "non-toxic"}
    ]}
  ]
}
